Our source for the ED40 and IC50 values is US5462952A, “Fenamate 1,3,4-thiadiazoles and 1,3,4-oxadiazoles as antiinflammatory agents” (Warner-Lambert Company, priority 1993, dated 1995).

Structures are written as SMILES.

In assay [1] the test system is Carrageenan-Induced Rat Foot Paw Edema. Kind of assay: Carrageenan-Induced Rat Foot Paw Edema-2 (CFE-2) Assay. Format: in vivo. The following applies: 5 h, Table 2, dosed one hour before carrageenan, edema at five hours, probit analysis, read-out: CFE, ID40 (dose at which 40% inhibition of swelling occurs). How it is done: Carrageenan solution (1% w/v) is prepared by dissolving 100 mg carrageenan (Marine Colloidal Div., Springfield, N.J.) in 10 ml of sterile saline (0.9%) solution (Travenol). The solution is vortexed for 30 to 45 minutes. Animals are dosed with compound one hour before carrageenan challenge. Foot paw edema is induced by injecting 0.10 ml of the 1% carrageenan subcutaneously into the plantar portion of the right hind paw of each rat under light anesthesia. Initial foot paw volume is measured immediately following carrageenan challenge using mercury plethysmography (Buxco Electronics). Edema is measured five hours after carrageenan. The difference between the 5-hour and the initial paw volume is expressed as delta edema. The delta edema for each test group of animals is used to calculate the percent inhibition of edema achieved by the compound at the test dose compared with the vehicle control group. The data in Table 1 (the dose at which swelling is inhibited by the noted) is calculated by probit analysis for the dose at which 40% inhibition occurs.
(§1) Tables 1 and 2 contain biochemical data obtained from the whole cell assay described above as IC50 s which are calculated as the concentration of test compound causing 50% inhibition of LTB4 or PGF2α formation. Table 2 also provides the dose at which 40% of swelling is inhibited in the CFE-2 assay.

Assay [2] deals with T1, 5-Lipoxygenase (Rattus norvegicus, UniProt P12527).
T1 construct: host or cells: RBL-1 (rat basophilic leukemia)
T1 sequence (P12527 1-673): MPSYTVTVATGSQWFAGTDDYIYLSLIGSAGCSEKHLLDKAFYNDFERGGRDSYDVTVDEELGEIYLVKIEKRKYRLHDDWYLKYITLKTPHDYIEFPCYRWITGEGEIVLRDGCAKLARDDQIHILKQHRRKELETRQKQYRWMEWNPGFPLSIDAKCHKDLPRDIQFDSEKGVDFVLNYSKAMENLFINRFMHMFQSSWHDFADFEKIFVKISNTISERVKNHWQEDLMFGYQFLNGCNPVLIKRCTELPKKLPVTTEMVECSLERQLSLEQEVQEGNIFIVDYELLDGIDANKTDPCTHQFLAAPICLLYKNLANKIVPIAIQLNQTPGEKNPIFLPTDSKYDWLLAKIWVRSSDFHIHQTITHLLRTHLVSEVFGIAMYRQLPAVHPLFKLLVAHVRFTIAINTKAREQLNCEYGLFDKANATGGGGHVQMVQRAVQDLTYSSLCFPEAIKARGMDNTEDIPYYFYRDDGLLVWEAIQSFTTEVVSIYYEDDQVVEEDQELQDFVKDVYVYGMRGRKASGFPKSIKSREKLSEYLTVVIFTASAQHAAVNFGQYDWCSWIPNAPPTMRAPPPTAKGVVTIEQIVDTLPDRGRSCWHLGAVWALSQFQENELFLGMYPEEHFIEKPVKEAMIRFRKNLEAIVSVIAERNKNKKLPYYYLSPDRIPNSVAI
The experiment in a line: ARBL whole cell 5-lipoxygenase assay (LTB4 formation in RBL-1 cells, A23187-stimulated). Format: cell-based. The following applies: Table 2. How it is done: (§2) The rat basophilic leukemia cell line (RBL-1) was obtained from the American Type Culture Collection (Rockville, Md.).
(§3) Radioimmunoassay (RIA) kits of LTB4 and PGF2α were obtained from Amersham (Arlington Heights, Ill.) and Seragen (Boston, Mass.), respectively.
(§4) RBL-1 cells are grown in suspension culture in Eagle's minimum essential medium supplemented with 12% fetal bovine serum at 37° C. in an incubator supplied with air-5% carbon dioxide. Cells are harvested by centrifugation. They are washed with cold phosphate buffered saline pH 7.4 (PBS; NaCl, 7.1 g; Na2 HPO4, 1.15 g; KH2 PO4, 0.2 g; and KCl, 0.2 g/l). Cells are finally suspended in PBS containing 1.0 mM calcium at a density of 2×10^6 cells/ml. Cells are incubated with and without test agent (in DMSO) (1% DMSO is without effect on arachidonic acid metabolism) for ten minutes at room temperature. Calcium ionophore A23187 (5 μM) is added and cells are incubated for seven minutes at 37° C. The reaction is stopped by chilling the tubes on ice for ten minutes. Cells are separated by centrifugation and the supernatant is stored at -20°. Aliquots (100 μl) are analyzed for LTB4 and PGF2α using radioimmunoassay kits as provided by the supplier.
as §1

In assay [3] the test system is Cyclooxygenase. The experiment in a line: ARBC whole cell cyclooxygenase assay (PGF2α formation in RBL-1 cells, A23187-stimulated). Format: cell-based, rat. The settings on record: Table 2. How it is done: as §2, §3, §4, §1

One may read the IC50 as the concentration at which inhibition is half-maximal. Consider `FC(F)(F)c1cccc(Nc2ccccc2-c2n[nH]c(=S)o2)c1` [Example 6, 5-[2-[[3-(Trifluoromethyl)phenyl]amino]phenyl]-1,3,4-oxadiazol-2(3H)-thione], for which the ED40 in assay [1] was determined as 8.5 mg/kg. Besides, the figures for the 50% inhibitory concentration (IC50) in assay [2] and in assay [3] were 770 nM and 270 nM, respectively.
In the same order, the values of `FC(F)(F)c1cccc(Nc2ccccc2-c2n[nH]c(=S)s2)c1` [Example 12, 5-[2-[(3-Trifluoromethylphenyl)amino]phenyl]-1,3,4-thiadiazole-2(3H)-thione] are 4.7 mg/kg, 870 nM and 850 nM.
